From patent US6043228A, “O^6 -substituted guanine derivatives, a process for their preparation and their use in treating tumor cells” (Cancer Research Campaign Technology Limited, priority 1993, dated 2000)
Entries after “also recorded” stand apart in the source; their conditions may differ.

Key:
ATase [1] = experiment: Inactivation of ATase in mammalian cells, summary over human, rat and Chinese hamster cell lines; format: cell-based; details: Table 5
Protocol: Mammalian cells were cultured under standard conditions. For example, Raji (a human lymphoblastoid cell line from a Burkitt's lymphoma) cells were grown in suspension culture in RPMI medium supplemented with 10% horse serum. […]
Cells were diluted to 10^6 /ml in culture medium containing either the appropriate concentration of inactivator or an equivalent volume of vehicle (DMSO). […] ATase activity was determined as described above, in duplicate sonicated cell extracts and expressed as the, percentage activity remaining based on that present in the untreated controls (for example 350-450 fm/mg in Raji cells).

[2] = molecular target: T1, ATase in human melanoma xenografts (Homo sapiens, UniProt P16455); experiment: ATase activity in human melanoma (A375) xenografts grown in nude mice after inactivator; format: in vivo; details: for inactivation of ATase in human melanoma xenografts, in words: single i.p. dose 30 or 60 mg/kg (FIG. 17); for ATase mean activity (fm/mg): Tumour
T1 construct: A375M cells are human melanoma cells from which the xenografts described below were established; endogenous in cells; host or cells: A375M xenograft grown in nude mice
T1 sequence (P16455 1-207): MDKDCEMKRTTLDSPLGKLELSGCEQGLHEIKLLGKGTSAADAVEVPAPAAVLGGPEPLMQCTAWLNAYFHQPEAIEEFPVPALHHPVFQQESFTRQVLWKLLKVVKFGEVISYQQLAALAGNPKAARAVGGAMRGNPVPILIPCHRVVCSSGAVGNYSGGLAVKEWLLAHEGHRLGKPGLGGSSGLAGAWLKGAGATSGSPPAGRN
Protocol: Cells (10^6) in 100 μl of PBS were injected subcutaneously into the right-hand flank of 8-10 week old nu/nu athymic mice. These cells were allowed to develop into a tumour for 3-4 weeks for passaging into experimental animals. Tumour blocks measuring 2 mm×2 mm×2 mm were implanted subcutaneously on the right hand flank. These animals were ready for use in inactivator experiments in 7-10 days.
(§1) ATase substrate DNA was prepared by incubation of purified calf thymes DNA with N-[^3 H]-methyl-N-nitrosuourea (18.7 Ci/mmole, Amersham International). Cell or tissue extracts (see 4.4) were incubated with [^3 H]-methylated-DNA substrate (100 μl containing 6.7 μg of DNA and 100 fmol of O^6 -[^3 H]methylguanine) at 37° C. for 60 mins. Following acid hydrolysis of the DNA as precviously described^21the [^3 H]-methylated protein was recovered and quantitated by liquid scintillation counting.
(§2) Mice were treated with the inactivator as a suspension in corn oil by intraperitoneal injection (i.p.) or by oral gavage (p.o.) 60 mins prior to temozolomide (100 mg/kg in 20% DMSO in phosphate-buffered saline) which was always given by intraperitoneal injection: this schedule was repeated on days 1 to 5 inclusive. Controls received vehicle alone, inactivator alone or temozolomide alone.

ATase in WiDr cells = molecular target: T2, ATase in WiDr cells (Homo sapiens, UniProt P16455); experiment: Inactivation of ATase activity in mammalian cells: WiDr; format: cell-based; details: read-out: Inactivation of ATase in Mammalian Cells I50
T2 construct: WiDr cells are a human colon carcinoma cell line; endogenous in cells; host or cells: WiDr
T2 sequence (P16455 1-207): T1 sequence (P16455 1-207)
Protocol: Mammalian cells were cultured under standard conditions. For example, Raji (a human lymphoblastoid cell line from a Burkitt's lymphoma) cells were grown in suspension culture in RPMI medium supplemented with 10% horse serum. A375M cells are human melanoma cells from which the xenografts described below were established following subcutaneous injection into nude mice: WiDr cells are a human colon carcinoma cell line: Hamster+120 cells are a mitozolomide-selected subline of a Chinese hamster lung fibroblast V79 cell line called RJKO: Yoshida cells are a rat carcinosarcoma cell line and YRbus is a busulphan resistant subline thereof: XP cells are an SV40-transformed fibroblast cell line originally from the skin of a Xeroderma piamentosum patient, pHMGhAT2b cells are a clone of these cells that have been transfected with a mammalian cell expression vector containing the human ATase cDNA and pHMGla cells are a clone that have been transfected with the expression vector only (i.e. one not containing the human ATase cDNA). Cell pellets were resuspended in cold (4° C.) buffer I containing 2 μg/ml leupeptin and sonicated for 10 seconds at 12μ peak to peak distance. After cooling in ice, the cells were sonicated for a further 10 seconds at 18μ. […]

[3] = system: Chinese Hamster V79 cells; experiment: Sensitivity of mammalian cells to the inactivators alone: V79 cells; format: cell-based; details: inactivator alone, up to 600 μM
Protocol: In order to assess the effects on cell growth alone, Xeroderma pigmentosum cells and Chinese Hamster V79 cells were exposed to increasing concentrations (up to 600 μM) of selected inactivators for 2 h at 37°. In some cases, the inactivators were allowed to undergo hydrolysis at 37° C. for 20 hours and then added to Raji cells in order to assess the extent to which the decomposition products of the agents might inhibit cell growth. After 6 days the extent of cell growth was determined as described above.

bone marrow cells = experiment: Inactivator toxicity in bone marrow cells (GM-CFC colonies, inactivator alone); format: cell-based, human; details: 10 μM, 5 patients (Table 7)
Text: For the granulocyte/macrophage colony-forming cell (GM-CFC) assay primary human bone marrow samples were obtained from patients undergoing cardiothoracic surgery. […] The colonies represented precursor cells of the granulocyte/macrophage lineage (huGM-CFC). Survival was expressed as a % of the number of colonies at zero dose temozolomide.

nude mice = experiment: Survival of xenograft-bearing nude mice given inactivator plus temozolomide; format: in vivo, mouse
Protocol: as §2
The mice in the tests shown in FIGS. 19-24 were Swiss mouse derived athymic male mice ([…]) from ZENECA Pharmaceuticals, Mereside, Alderley Park, Macclesfield, Cheshire SK10 4T6, England.

ATase [4] = experiment: ATase activity in tissues of nude mice after inactivator; format: in vivo, mouse; details: 10 mg/kg i.p., 24 and 48 hours (Table 10)
Protocol: as §1, with “counting. […]” for “counting.”
The mice in the tests shown in FIGS. 17 and 18 were BALB-C derived athymic male mice (nu/nu athymic) from the in-house breeding colony at the Paterson Institute for Cancer Research as described above (Animal Services Unit-ASU Mice).
Animals were given a single dose of B.4280 (10 mg/kg i.p.) and sacrificed

SMILES	effectiveness relative to BeG in the cell lines used (ATase [1])	inactivating ATase in human melanoma xenografts, in words ([2]; 30 mg/kg (FIG. 8))	inactivation of ATase in human melanoma xenografts, in words [2]	IC50 (ATase in WiDr cells) [µM]	growth inhibition / toxicity to V79 cells, in words [3]	toxic effect of inactivator alone on bone marrow cells, in words (bone marrow cells)	toxicity of oral combination versus i.p. route, in words (nude mice; with temozolomide (FIG. 24B))	toxicity at equi-effective doses for tumour growth inhibition, in words (nude mice; with temozolomide (FIGS. 21B, 22B))	recovery of tumour ATase activity, in words ([2]; 10 mg/kg i.p. (Table 10))	ATase mean activity (fm/mg) ([2]; 24 h after 10 mg/kg i.p.)	ATase mean activity (fm/mg) ([2]; 48 h after 10 mg/kg i.p.)	recovery of ATase activity in tissues, in words (ATase [4])
Nc1nc(OCc2cccs2)c2nc[nH]c2n1 [B.4205, 0^6 -thenylguanine]	up to 7 times	as effetive as BeG	inactivated	0.02	no such effects were seen	comparable to those for O^6 -benzylguanine	–	–	–	–	–	–
Nc1nc(OCc2cc(Br)cs2)c2nc[nH]c2n1 [B.4280, O^6-(4-bromothenyl)guanine]	–	–	inactivated; also recorded: the most effective in vivo inactivator at the doses examined	–	–	–	marginally less toxic than the i.p. route	less toxic than B.4205	very low at 24 hours but had recovered completely by 48 hours	36 ± 7.79	140 ± 43.87	activity in brain, testis and bone marrow was near to control levels by 24 hours whereas lung and spleen activity had not completely recovered by 48 hours
